# Laboratory results reported in patent US20230020507A1, “COMPOUND AND USE THEREOF IN TREATING AUTOIMMUNE DISEASES” (PARENCHYMA BIOTECH INC., priority 2019, published 2023).
# Columns and labels:
# [1] = system: IFN-γ, IL-17A, IL-1β, IL-10 and Foxp3 expression in spinal cord lesions; test: mRNA expression of inflammatory and immunomodulatory factors in spinal cord of EAE mice (real-time PCR); type: in vivo, mouse; conditions: 20 mg/kg i.p., 42nd day, compared to solvent control
# Excerpt: On the 42nd day of the experiment, the spinal cord of the mouse was excised to prepare an mRNA sample. In order to extract mRNA, the spinal cord tissue was ground with a homogenizer to obtain a homogeneous suspension. […] Then, cDNA was synthesized from the isolated RNA by reverse transcription, and the expression of inflammatory cytokines was investigated through real-time polymerase chain reaction (PCR) using iQ SYBR-Green Supermix (Bio-rad) in the CFX96 (Bio-rad) detection system. Relative values of the enzyme expression levels were compared by the ΔΔct method using GAPDH as a control enzyme. Herein, one (1) fold was set using the WT mouse spinal cord as a control.
# The real-time polymerase chain reaction was implemented under the conditions of cycles at an annealing temperature of 58° C., and the following primer sequences were used.
# [2] = system: Foxp3+ regulatory T cells; test: In vitro regulatory T cell (Foxp3+ Treg) production from human peripheral blood CD4 T cells; type: cell-based; conditions: anti-CD3/anti-CD28, TGFβ-1, IL-2, 2.5 μM, 7 days
# Protocol: Human peripheral blood (AllCells) and phosphate buffered saline (PBS) were mixed in a ratio of 1:1 to prepare a mixture, followed by allowing the mixture to slowly rise so as not to be mixed into the upper layer of Histopaque (Sigma). After centrifugation at 350 g for 20 minutes, only the monocyte layer in the middle layer was collected and washed with HBSS (Hanks' Balanced Salt Solution, Gibco®). After washing with MACS buffer (Miltenyi Biotec) once more to obtain T-cells, positive selection (autoMACS seperator, Miltenyi Biotec) was performed with CD4 Microbeads (Miltenyi Biotec). The T-cells collected by the above method were prepared by resuspending the cells in RPMI-fetal bovine serum (FBS) 10%+2-ME (mercaptoethanol) medium at 5×10^5/ml. For T-cell activation, 10 μg/ml anti-CD3 (eBioscience™) was dispensed by 150 μl into a 48-well plate, reacted in a cell incubator (37° C., 5% CO2 incubator) for 3 hours, and washed with phosphate buffered saline to prepare the plate. 250 μl of resuspended T-cells was dispensed onto the prepared plate, and each well was treated with 2 μg/ml of anti-CD28 (eBioscience™), 5 ng/ml of TGFβ-1 (R&D systems), and 50 U/ml of IL-2 (Miltenyi Biotec). Each 5 μl of compounds at a concentration of 2.5 μM diluted in RPMI+2ME medium was used for treatment, followed by culturing the same in a cell incubator (37° C., 5% CO2 incubator) for 7 days. As a control, 5 μl of 0.05% dimethylsulfoxide (DMSO)/RPMI medium was used for treatment. After 7 days, in order to confirm effects of producing regulatory T cells, the cultured cells were recovered to determine the presence of Foxp3 protein.
# The recovered cells were placed in a 5 ml FACS tube (BD Falcon) and washed with 1 ml of phosphate buffered saline. The cells were resuspended in 0.1 ml of FACS buffer (0.1% NaN3, 1% FBS) and treated with 1 μg of human immunoglobulin G (Human IgG, Sigma) to prevent non-specific binding of the antibody. After reacting at 4° C. for 15 minutes, the cells were washed with FACS buffer. Then, 1 ml of Fixation/Permeabilization solution (eBioscience™) was added to the FACS tube containing each sample, followed by reaction at 4° C. for 1 hour. Thereafter, the product was washed twice with a Permeabilization buffer (eBioscience™). Then, 0.25 μg of Foxp3 monoclonal antibody (eBioscience™) was used for treatment, followed by staining the sample for 4 to 30 minutes. The cells were washed twice with the permeabilization buffer, suspended in 0.3 ml of FACS buffer, and measured by flow cytometry.
# [3] = system: IL-1β, IL-6, IL-17A, TNF-α, IL-10 and Foxp3 expression in colon lesions; test: mRNA expression of inflammatory and immunomodulatory factors in colon of DSS mice (real-time PCR); type: in vivo, mouse; conditions: 20 mg/kg oral, 15th day, compared to solvent control
# Excerpt: On the 15th day of the experiment, the colon of the mouse was excised to prepare an mRNA sample. In order to extract mRNA, the colon tissue was ground with a homogenizer to acquire a homogeneous suspension. […] From the isolated RNA, cDNA was synthesized by reverse transcription followed by confirming the expression of inflammatory cytokines through real-time polymerase chain reaction (PCR) using iQ SYBR-Green Supermix (Bio-rad) in the CFX96 (Bio-rad) detection system. Relative values of the enzyme expression levels were compared by the ΔΔct method using GAPDH as a control enzyme. Herein, one (1) fold was set using the normal mouse colon as a control.
# The real-time polymerase chain reaction was implemented under the conditions of cycles at an annealing temperature of 58′° C. and the following primer sequences were used.
# [4] = system: AOM/DSS-induced colon cancer in C57BL/6 mice; test: AOM/DSS-induced colon cancer mouse model, number of tumors per colon; type: in vivo; conditions: 20 mg/kg oral daily 7th to 21st day, 93rd day, solvent control 11.33±4.33
# Excerpt: Sterile distilled water was provided for drinking from the 8th day of the experiment.
# [5] = system: C57BL/6 mice with DSS-induced inflammatory bowel disease; test: DSS-induced inflammatory bowel disease model, severity index and colon weight:length ratio; type: in vivo, mouse; conditions: 20 mg/kg oral daily, compared to solvent control
# Protocol: The 1.5% DSS solution was changed at an interval of 2 days. Sterile distilled water was provided for drinking from the 8th day of the experiment. Body weight and severity index were measured at an interval of 2 days from the 0th day of the experiment in order to confirm the onset of inflammatory bowel disease.
# 20 mg/kg of the compound per mouse was completely dissolved in DMSO corresponding to 10% (v/v) of the administered dose, and then diluted in a cremophor EL-phosphate buffered saline mixture in order to produce the final DMSO:Cremophor EL:phosphate buffered saline (1:1:8, v/v/v), followed by oral administration of 200 μl daily for a total of 10 times from the 2nd to 11th days of the experiment. An inflammatory bowel disease severity index was visually observed and recorded at an interval of 2 days according to a severity index system classified into 0 to 10 levels.
# Inflammatory bowel disease symptoms were evaluated by summing the scores of three items according to the following items (Table 3).
smiles,measurement,setting,value
"O=C(Cc1c[nH]c2ccc(Cl)cc12)Nc1ccc(Cl)c(F)n1 [Compound 26, 2-(5-chloro-1H-indol-3-yl)-N-(5-chloro-6-fluoropyridin-2-yl)acetamide]",expression level of Foxp3 in spinal cord lesions,[1],significantly increased
same,expression level of IFN-γ in the spinal cord lesion,[1],significantly reduced
same,expression level of IL-1β in the spinal cord lesion,[1],significantly reduced
same,expression level of IL-10 in spinal cord lesions,[1],significantly increased
same,expression level of IL-17A in the spinal cord lesion,[1],significantly reduced
same,generation of Foxp3+ regulatory T cells,[2],promoted
same,expression level of Foxp3 in the colon lesion,[3],significantly increased
same,expression level of IL-1β in colon lesions,[3],significantly reduced
same,expression level of IL-6 in colon lesions,[3],significantly reduced
same,expression level of IL-10 in the colon lesion,[3],significantly increased
same,expression level of IL-17A in colon lesions,[3],significantly reduced
same,expression level of TNF-α in colon lesions,[3],significantly reduced
same,number of tumors in the colon,[4],3.17±1.17
same,inflammatory bowel disease severity index,"[5]; 2nd to 11th day, 10th day of the experiment",statistically significant therapeutic effects
same,colon weight:length ratio (intestinal inflammation),[5]; 15th day of the experiment,significantly suppressed
